Tests used:
HaCaT cells = experiment: In vitro wounding assay (PDMS barrier) of keratinocyte migration; assay type: cell-based, human; conditions: HG HaCaT cells; 5 μmol/L SF or 20 μmol/L CA; up to 72 h
Procedure: (§1) Human immortalized keratinocytes HaCaT were obtained from the Arizona Cancer Center (see, e.g., Boukamp P, et al., J Cell Biol 106:761-771, 1988). Cells were grown in Dulbecco's modified Eagle's medium (DMEM) containing low glucose (LG, 5.5 mmol/L) and 10% fetal bovine serum (FBS) in an incubator at 37° C. with 5% CO2. For the experiments, the cells were starved in serum-free LG DMEM for 24 h, then either maintained in LG DMEM or switched to high glucose (HG, 25 mmol/L) DMEM for 2 days (see, e.g., Zheng H, et al., Diabetes 60:3055-3066, 2011; Lan C C, et al., Br J Dermatol 159:1103-1115, 2008). For the treatments, the cells were dosed with 5 μmol/L SF or 20 μmol/L CA.
siRNA transfections. HaCaT cells were transfected with either a non-specific, control small interfering RNA (Con-siRNA, #1027281, Qiagen, Valencia, Calif.) or an NRF2-specific siRNA (#S100657937) using the HiPerfect transfection reagent (Qiagen) according to the manufacturer's instructions. Briefly, cells were maintained in LG or HG DMEM for 2 days and then transfected with either control or NRF2 siRNA for migration, proliferation, and apoptosis experiments. For the ROS detection, cells were maintained in LG DMEM and transfected with either control or NRF2 siRNA; 24 h later, the cells were switched to HG DMEM and treated as indicated.
In vitro wounding assay. […]

MMP9 = MMP9 immunoblot and gelatin zymography in HaCaT cells under high glucose; assay type: cell-based, human; conditions: HG HaCaT cells, 5 μmol/L SF or 20 μmol/L CA
Procedure: as §1
siRNA transfections. […]
Cultured HaCaT cells were harvested in 1× sample buffer (50 mM Tris-HCl pH 6.8, 2% sodium dodecyl sulfate (SDS), 10% glycerol, 100 mM dithiothreitol (DTT), 0.1% bromophenol blue), boiled and sonicated. […] TGF-β1 was measured using the Quantikine human TGF-β1 immunoassay kit (R&D systems; Minneapolis, Minn.) according to the manufacturer's instructions. The absorbance at 450 nm was measured using a Synergy 2 microplate reader (BioTek, Winooski, Vt.) and the amount of TGF-β1 was calculated by standard curve. MMP9 activity was evaluated by gelatin zymography as described elsewhere (see, e.g., Toth M, et al., Methods Mol Biol 878:121-135, 2012; Zhu P, et al., Exp Dermatol 21:123-129, 2012). […]

Compound | in vitro wound closure (cell migration) (HaCaT cells) | expression and activity of MMP9 (MMP9)
O=CC=Cc1ccccc1 [CA, Cinnamaldehyde] | significantly accelerated wound closure in HG cells | decreased
C[S@@+]([O-])CCCCN=C=S [SF, L-sulforaphane] | significantly accelerated wound closure in HG cells | decreased
